US7053178B2, “Synthetic peptides and kits for diagnosis of anti-phospholipid syndrome” (Yeda Research Development Co., LTD, priority 1998, dated 2006)
Where no end group is shown, it is not given here.

Assays:
anti-β2GPI G-3 mAb [1] = experiment: Cyto-ELISA: inhibition of G-3 mAb binding to HUVEC; parameters: species or system human; settings: peptide concentration of 10 μM
Description: (§1) FIGS. 2A–2C are graphs showing inhibition of the anti-β2GPI ILA-1, ILA-3 and G-3 mAbs binding to human umbilical vein endothelial cells (HUVEC) by competition assays using increasing concentrations of the inhibitory monomer peptides A, B and C, respectively, and of unrelated peptide D as control. The percent of inhibition was calculated as in FIG. 1 above. Each point represents mean±SD of three different experiments.
(§2) (f) Anti-β2GPI mAb binding to endothelial cells in the presence of the inhibitory peptides. Human umbilical vein endothelial cells (HUVEC) were isolated as previously described and cultured under standard conditions (Jaffe et al., 1973). Briefly, umbilical cords were treated with collagenase (0.2% from Clostridium histolyticum, Boehringer) for 20 min at 37° C., cells were cultured in medium 199 with 20% FCS, 10 μg/ml growth supplement, 100 μg/ml heparin and antibiotics (streptomycin, penicillin), and used at passages 1–2 for plating onto gelatin-coated 96-well plates. Cyto-ELISA was performed as detailed before (Jaffe et al., 1973). Briefly, mAbs at different concentrations were added to HUVEC confluent wells, previously coated with 10 μg/ml β2GPI for 2 hours and fixed with 0.1% glutaraldehyde. The bound mAb was detected by further 1-hour incubation with alkaline phosphatase-conjugated goat anti-human IgM. […]

anti-β2GPI G-3 mAb [2] = experiment: U937 monocyte adhesion to HUVEC exposed to G-3 mAb; format: cell-based, human; settings: G-3 mAb preincubated with peptide, 15 μM peptide
Description: (§3) FIGS. 3A–3C are graphs showing inhibition of U937 monocyte cell adhesion to HUVEC upon exposure to anti-β2GPI ILA-1, ILA-3 and G-3 mAbs and increasing concentrations of the inhibitory monomer peptides A, B and C, respectively, and of unrelated peptide D as control. The percentage of inhibition of adhesion was calculated as follows: % inhibition of adhesion=CPM in the presence of anti-β2GPI mAb−CPM in the presence of anti-β2GPI mAb and the tested peptide/CPM in the presence of anti-β2GPI mAb×100 (CPM=counts/min). Each point represents mean±SD of three different experiments.
(§4) (g) Adherence of U937 monocyte cells to endothelial cells in the presence of anti-β2GPI mAbs and the inhibitory peptides. This assay was performed as previously described (Carvalho et al., 1996). Briefly, U937 cells (a monocyte/macrophage-like cell line) were pretreated with heat-aggregated gamma-globulin for 30 min at 37° C. […] Radioactivity associated with adherence was quantified by beta-scintillation spectroscopy. The results were expressed as percent of added U937 cells that adhered and are presented as the mean±SD from 3–5 replicate wells.
(§5) The adhesion of monocytes to endothelial cells (EC) is considered a marker of EC activation. The percentage of adhesion is expressed as the portion of added U937 monocyte cells adhering to the HUVEC (thus reflecting the percentage of HUVEC coverage by the monocytes). […]

[3] = system: experimental APS induced by anti-β2GPI mAb G-3; experiment: Murine experimental APS induced by G-3 mAb; format: in vivo, BALB/c mice; settings: mice infused with G-3 mAb, peptide 40 μg/mouse daily 3 days, day 15
Description: (§6) (i) Mice: Female BALB/c mice, aged 10–12 weeks, were purchased from Tel-Aviv University Animal House, Israel. The females were caged overnight with BALB/c males and examined for vaginal plug next morning. The presence of the plug was considered as day 0 of pregnancy in all the studied groups. (j) Induction of murine experimental APS. Mice were infused intravenously with 20 μg of each one of the anti-β2GPI ILA-1, ILA-3, and G-3 mAbs at day 0 (the day at which a vaginal plug was observed following mating) (Blank et al., 1991), 6 hours later the mice received daily 40 μg/mouse of the tested peptides during 3 days. The mice were bled and sacrificed on day 15 of pregnancy. Fetal resorptions, activated partial thromboplastin time and platelet counts (markers of the APS-equivalent in mice) were determined as described (Blank et al., 1991). Significant fetal loss, thrombocytopenia and prolonged activated thromboplastin time (aPTT) were induced in naive mice following passive intravenous administration of the three anti-β2GPI mAbs ILA-1, ILA-3 and G-3, as described in Materials and Methods, section (j). The clinical manifestations of the experimental APS were prevented by infusion of the specific peptide monomers A, B, C which were delivered to the mice with the corresponding pathogenic anti-β2GPI mAbs, as shown in Table 2. […] Similarly, mice which were preinfused with control IgM and received a cocktail of the peptide monomers (A+B+C), were not affected.

anti-β2GPI ILA-1 mAb [4] = experiment: Cyto-ELISA: inhibition of ILA-1 mAb binding to HUVEC; parameters: species or system human; settings: peptide concentration of 10 μM
Description: as §1, §2

anti-β2GPI ILA-1 mAb [5] = experiment: U937 monocyte adhesion to HUVEC exposed to ILA-1 mAb; format: cell-based, human; settings: ILA-1 mAb preincubated with peptide, 10 μM peptide
Description: as §3, §4, §5

[6] = system: experimental APS induced by anti-β2GPI mAb ILA-1; experiment: Murine experimental APS induced by ILA-1 mAb; format: in vivo, BALB/c mice; settings: for aPTT (activated partial thromboplastin time): mice infused i.v. with 20 μg ILA-1 mAb day 0 of pregnancy; for Platelet count / % Fetal loss (Resorbed fetuses/Total fetuses): mice infused with ILA-1 mAb
Description: as §6

anti-β2GPI ILA-3 mAb = experiment: U937 monocyte adhesion to HUVEC exposed to ILA-3 mAb; format: cell-based, human; settings: ILA-3 mAb preincubated with peptide, 15 μM peptide
Description: as §3, §4, §5

[7] = peptide 40 μg/mouse daily 3 days, day 15

## CATLRVYKGG [Peptide C]
anti-β2GPI G-3 mAb [1]
  inhibition of G-3 mAb binding to HUVEC: 92%
anti-β2GPI G-3 mAb [2]
  inhibition of adhesion of U937 to HUVEC: 92%
[3]
  % Fetal loss (Resorbed fetuses/Total fetuses): 7 ± 2%
  Platelet count: 1242 cells/mm^3 × 10^−3
  aPTT (activated partial thromboplastin time): 31 ± 4 s
[3]; listed as peptide C
  aPTT (activated partial thromboplastin time): 31 ± 4 s

## NTLKTPRVGG [Peptide A]
anti-β2GPI ILA-1 mAb [4]
  inhibition of ILA-1 mAb binding to HUVEC: 95%
anti-β2GPI ILA-1 mAb [5]
  inhibition of adhesion of U937 to HUVEC: 84%
[6]; [7]
  aPTT (activated partial thromboplastin time): 33 ± 4 s
  % Fetal loss (Resorbed fetuses/Total fetuses): 8 ± 2%
  Platelet count: 989
[6]; peptide 40 μg/mouse daily 3 days, day 15, listed as peptide A
  aPTT (activated partial thromboplastin time): 33 ± 4 s
[6]
  Platelet count: 989±103 cells/mm^3×10^3
[6]; peptide 40 μg/mouse daily 3 days, day 15, listed as peptide monomer A
  % Fetal loss (Resorbed fetuses/Total fetuses): 8±2%

## KDKATFGTHDG [Peptide B]
anti-β2GPI ILA-3 mAb
  inhibition of adhesion of U937 to HUVEC: 95%
